Results reported in patent US6355799B1, “Substituted benzene compounds, process for their preparation, and herbicidal and defoliant compositions containing them” (ISK Americas Incorporated, priority 1997, dated 2002).

Tests used:
Assay type in all cases: in vivo
[1] = test system: redroot pigweed (Amaranthus retroflexus, AMARE); test: Pre-emerge test, greenhouse herbicide activity screening; settings: rated 14 days after application, 0 = no damage, 100 = complete death
Procedure, shortened: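 Compounds in acetone were track-sprayed at 15-1000 g ai/ha (187 l/ha) on sandy loam pots: pre-emerge one day after seeding, post-emerge at 2-3 leaf stage with 0.25% v/v non-ionic surfactant. Phytotoxicity was rated 14 days later on a 0 (no damage) to 100 (complete death) scale.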

[2] = test system: barnyardgrass (Echinochloa crus-galli, ECHCG); test: as above; settings: rated 14 days after application, 0 = no damage, 100 = complete death
Procedure, shortened: (§1)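 Sandy loam pots; pre-emerge: sown 1 d pre-spray, surface-watered after, then bottom-watered. Post-emerge: sown 8–21 d before, 2–3 leaf stage, + 0.25% v/v NIS, bottom-watered. Acetone, 187 l/ha track spray, 15–1000 g ai/ha. 0–100 injury score, day 14.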

[3] = test system: common ragweed (Ambrosia artemisizfolia L., AMBEL); test: as above; settings: rated 14 days after application, 0 = no damage, 100 = complete death
Procedure, shortened: as §1

[4] = test system: green foxtail (Setaria viridis, SETVI); test: as above; settings: rated 14 days after application, 0 = no damage, 100 = complete death
Procedure, shortened: as §1

[5] = test system: ivyleaf morningglory (Ipomoea hederacea, IPOHE); test: as above; settings: rated 14 days after application, 0 = no damage, 100 = complete death
Procedure, shortened: as §1

[6] = test system: johnsongrass (Sorghum halepense, SORHA); test: as above; settings: rated 14 days after application, 0 = no damage, 100 = complete death
Procedure, shortened: as §1

[7] = test system: lambsquarters (Chenopodium album, CHEAL); test: as above; settings: rated 14 days after application, 0 = no damage, 100 = complete death
Procedure, shortened: as §1

[8] = test system: large crabgrass (Digitaria sanguinalis, DIGSA); test: as above; settings: rated 14 days after application, 0 = no damage, 100 = complete death
Procedure, shortened: as §1

[9] = test system: sicklepod (Cassia obtusifolia, CASOB); test: as above; settings: rated 14 days after application, 0 = no damage, 100 = complete death
Procedure, shortened: as §1

[10] = test system: velvetleaf (Abutilon theophrasti, ABUTH); test: as above; settings: rated 14 days after application, 0 = no damage, 100 = complete death
Procedure, shortened: as §1

[11] = test system: field corn (Zea mays L., var. Dekalb 535, CORN); test: Pre-emerge test, crop safety; settings: rated 14 days after application, 0 = no damage, 100 = complete death
Procedure, shortened: (§2)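 Plants grown in 10 cm pots of sandy loam mix received acetone-dissolved compounds through a moving flat-fan nozzle. Doses ranged from 15 to 1000 g ai/ha. Pre-emerge pots were seeded one day earlier, post-emerge pots 8–21 days earlier. Fourteen days on, each pot was graded 0–100 for damage.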

[12] = test system: upland rice (Oryza sp., var. Tebonnet, RICE); test: Pre-emerge test, crop safety; settings: rated 14 days after application, 0 = no damage, 100 = complete death
Procedure, shortened: as §2

[13] = test system: barnyardgrass (Echinochloa crus-galli, ECHCG); test: Post-emerge test, greenhouse herbicide activity screening; settings: post-emerge, 14 days after application, rating scale 0-100
Procedure, shortened: (§3)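 Rating: 0–100 visual injury, 14 DAA. Application: acetone, 187 l/ha, 15–1000 g ai/ha, flat-fan track sprayer with nozzle 40–45 cm above soil or canopy. Post-emerge runs used 0.25% v/v surfactant on 2–3 leaf plants.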

[14] = test system: common ragweed (Ambrosia artemisizfolia L., AMBEL); test: as above; settings: post-emerge, 14 days after application, rating scale 0-100
Procedure, shortened: as §3

[15] = test system: green foxtail (Setaria viridis, SETVI); test: as above; settings: post-emerge, 14 days after application, rating scale 0-100
Procedure, shortened: as §3

[16] = test system: ivyleaf morningglory (Ipomoea hederacea, IPOHE); test: as above; settings: post-emerge, 14 days after application, rating scale 0-100
Procedure, shortened: as §3

[17] = test system: johnsongrass (Sorghum halepense, SORHA); test: as above; settings: post-emerge, 14 days after application, rating scale 0-100
Procedure, shortened: as §3

[18] = test system: lambsquarters (Chenopodium album, CHEAL); test: as above; settings: post-emerge, 14 days after application, rating scale 0-100
Procedure, shortened: as §3

[19] = test system: large crabgrass (Digitaria sanguinalis, DIGSA); test: as above; settings: post-emerge, 14 days after application, rating scale 0-100
Procedure, shortened: as §3

[20] = test system: redroot pigweed (Amaranthus retroflexus, AMARE); test: as above; settings: post-emerge, 14 days after application, rating scale 0-100
Procedure, shortened: as §3

[21] = test system: sicklepod (Cassia obtusifolia, CASOB); test: as above; settings: post-emerge, 14 days after application, rating scale 0-100
Procedure, shortened: as §3

[22] = test system: velvetleaf (Abutilon theophrasti, ABUTH); test: as above; settings: post-emerge, 14 days after application, rating scale 0-100
Procedure, shortened: as §3

[23] = test system: field corn (Zea mays L., var. Dekalb 535, CORN); test: Post-emerge test, crop safety; settings: post-emerge, 14 days after application, rating scale 0-100
Procedure, shortened: as §1

[24] = test system: upland rice (Oryza sp., var. Tebonnet, RICE); test: Post-emerge test, crop safety; settings: post-emerge, 14 days after application, rating scale 0-100
Procedure, shortened: as §1

COc1c(Cl)cc(F)c(-n2c(=O)cc(C(F)(F)F)n(C)c2=O)c1NC(=O)c1ccc(Cl)c(Cl)c1 [2-59]
Pre-emerge Herbicidal Activity, phytotoxicity rating (0-100), AMARE ([1]; 63 g ai/ha): 100
Pre-emerge Herbicidal Activity, phytotoxicity rating (0-100), AMARE ([1]; 250 g ai/ha): 100
Pre-emerge Herbicidal Activity, phytotoxicity rating (0-100), ECHCG ([2]; 63 g ai/ha): 40
Pre-emerge Herbicidal Activity, phytotoxicity rating (0-100), ECHCG ([2]; 250 g ai/ha): 9
Pre-emerge Herbicidal Activity, phytotoxicity rating (0-100), AMBEL ([3]; 63 g ai/ha): 50
Pre-emerge Herbicidal Activity, phytotoxicity rating (0-100), AMBEL ([3]; 250 g ai/ha): 90
Pre-emerge Herbicidal Activity, phytotoxicity rating (0-100), SETVI ([4]; 63 g ai/ha): 100
Pre-emerge Herbicidal Activity, phytotoxicity rating (0-100), SETVI ([4]; 250 g ai/ha): 100
Pre-emerge Herbicidal Activity, phytotoxicity rating (0-100), IPOHE ([5]; 63 g ai/ha): 20
Pre-emerge Herbicidal Activity, phytotoxicity rating (0-100), IPOHE ([5]; 250 g ai/ha): 100
Pre-emerge Herbicidal Activity, phytotoxicity rating (0-100), SORHA ([6]; 63 g ai/ha): 40
Pre-emerge Herbicidal Activity, phytotoxicity rating (0-100), SORHA ([6]; 250 g ai/ha): 90
Pre-emerge Herbicidal Activity, phytotoxicity rating (0-100), CHEAL ([7]; 63 g ai/ha): 100
Pre-emerge Herbicidal Activity, phytotoxicity rating (0-100), CHEAL ([7]; 250 g ai/ha): 100
Pre-emerge Herbicidal Activity, phytotoxicity rating (0-100), DIGSA ([8]; 63 g ai/ha): 70
Pre-emerge Herbicidal Activity, phytotoxicity rating (0-100), DIGSA ([8]; 250 g ai/ha): 100
Pre-emerge Herbicidal Activity, phytotoxicity rating (0-100), CASOB ([9]; 63 g ai/ha): 30
Pre-emerge Herbicidal Activity, phytotoxicity rating (0-100), CASOB ([9]; 250 g ai/ha): 100
Pre-emerge Herbicidal Activity, phytotoxicity rating (0-100), ABUTH ([10]; 63 g ai/ha): 100
Pre-emerge Herbicidal Activity, phytotoxicity rating (0-100), ABUTH ([10]; 250 g ai/ha): 100
Pre-emerge phytotoxicity rating (0-100), crop damage, CORN ([11]; 63 g ai/ha): 10
Pre-emerge phytotoxicity rating (0-100), crop damage, CORN ([11]; 250 g ai/ha): 70
Pre-emerge phytotoxicity rating (0-100), crop damage, RICE ([12]; 63 g ai/ha): 25
Pre-emerge phytotoxicity rating (0-100), crop damage, RICE ([12]; 250 g ai/ha): 75
phytotoxicity rating ECHCG ([13]; 63 g ai/ha): 0
phytotoxicity rating ECHCG ([13]; 250 g ai/ha): 30
phytotoxicity rating AMBEL ([14]; 63 g ai/ha): 70
phytotoxicity rating AMBEL ([14]; 250 g ai/ha): 100
phytotoxicity rating SETVI ([15]; 63 g ai/ha): 20
phytotoxicity rating SETVI ([15]; 250 g ai/ha): 20
phytotoxicity rating IPOHE ([16]; 63 g ai/ha): 100
phytotoxicity rating IPOHE ([16]; 250 g ai/ha): 100
phytotoxicity rating SORHA ([17]; 63 g ai/ha): 30
phytotoxicity rating SORHA ([17]; 250 g ai/ha): 65
phytotoxicity rating CHEAL ([18]; 63 g ai/ha): 100
phytotoxicity rating CHEAL ([18]; 250 g ai/ha): 100
phytotoxicity rating DIGSA ([19]; 63 g ai/ha): 0
phytotoxicity rating DIGSA ([19]; 250 g ai/ha): 30
phytotoxicity rating AMARE ([20]; 63 g ai/ha): 100
phytotoxicity rating AMARE ([20]; 250 g ai/ha): 100
phytotoxicity rating CASOB ([21]; 63 g ai/ha): 90
phytotoxicity rating CASOB ([21]; 250 g ai/ha): 100
phytotoxicity rating ABUTH ([22]; 63 g ai/ha): 100
phytotoxicity rating ABUTH ([22]; 250 g ai/ha): 100
phytotoxicity rating CORN ([23]; 63 g ai/ha): 70
phytotoxicity rating CORN ([23]; 250 g ai/ha): 80
phytotoxicity rating RICE ([24]; 63 g ai/ha): 70
phytotoxicity rating RICE ([24]; 250 g ai/ha): 80
